# In US20260286012A1, “ANTI-OUABAIN NANOBODY AND APPLICATION THEREOF” (priority 2023, published 2026):
# Key:
# Hela cells [1] = experiment: MTT determination of cell survival rate; format: cell-based; set-up: dose or concentration left out as unconfirmed; details: ouabain for 48 h and 24 h, respectively
# Method: By methyl thiazolyl tetrazolium (MTT), the cell survival rate was measured. When the cell density in a 6-well plate reached 80%-90%, the cells were digested, and centrifuged at 1000 rpm for 5 min; a cell precipitate was left, added with 1 mL of culture solution and then resuspended; and the cells were counted with a cell counting plate. 100 µL of cell suspension was added to a 96 ELISA plate at 1×10^4 cells/well, and sterile PBS was added around cell wells. The cells were cultured on a 96-well plate for 12 to 24 h. When the cell growth density reached 60% to 80%, a drug could be added to treat the cells at this point. […] The absorbance of each well was detected with a microplate reader at 490 nm and the cell survival rate was calculated. […]
# (§1) High-concentration ouabain can lead to apoptosis of cells. To study the pharmacological effect of ouabain Nb, this study treated Hela cells with ouabain and ouabain Nb, and detected the effects of ouabain and antibody protein on the cell survival rate by an MTT method. […] To further verify the biological activity of ouabain Nb, the Ca^2+ concentration in the HeLa cells was detected by neutralizing ouabain monomers with ouabain Nb. […] After incubation of ouabain Nb (5 μM) and ouabain, the cells were treated and the Ca^2+ concentration was detected.
# Hela cells [2] = experiment: Flow cytometry assay for intracellular Ca2+ level; format: cell-based; details: 250 nM ouabain vs control group
# Method: The cells were cultured in a 12-well cell culture dish. When the cell growth density reached 60% to 80%, a drug could be added to treat the cells. The medium was removed from the treated cells under dark conditions, and the cells were rinsed with pre-warmed HBSS for three times to eliminate esterases and other substances in the medium to reduce their degradation to an ion probe. 1-5 μM of Fluo4-AM working solution was added, such that the cells were completely covered with the working solution and incubated in a cell incubator for 40 min at a constant temperature. The Fluo4-AM working solution was discarded, and the cells were washed with HBSS for three times to thoroughly remove any remaining dye Subsequently. […]
# as §1
compound,measurement,setting,value
"C[C@@H]1O[C@@H](O[C@H]2C[C@@H](O)[C@]3(CO)[C@H]4[C@H](O)C[C@]5(C)[C@@H](C6=CC(=O)OC6)CC[C@]5(O)[C@@H]4CC[C@]3(O)C2)[C@H](O)[C@H](O)[C@H]1O [ouabain, Ouabain]",survival rate of the cells treated with ouabain,Hela cells [1],reduced to half of the original
same,Ca2+ concentration in HeLa cells,Hela cells [2],significantly higher than that in the control group
